Patent publication EP2818471A1, “Nitrogen bicyclic compounds as inhibitors for Scyl1 and Grk5” (Max-Planck-Gesellschaft zur Förderung der Wissenschaften …, priority 2013, dated 2014)

Target: T1, GRK5 (Homo sapiens, UniProt P34947)
T1 construct: purchased Millipore (KinaseProfiler service)
Assay: GRK5 radiometric filtration binding assay (Millipore KinaseProfiler)
Type: biochemical
Conditions: Table 6
Experimental: As alternative, IC50 values are determined by a radiometric based filtration binding assay, namely Millipore KinaseProfiler™. GRK5 is incubated with 8 mM MOPS pH7.0, 0.2 mM EDTA, 2 mg/mL casein, 10 mM MgAcetate and […] (specific activity approx. 500 cpm/pmol, concentration as required). The reaction is initiated by the addition of the MgATP mix. After incubation for 40 minutes at room temperature, the reaction is stopped by the addition of 3 % phosphoric acid solution. 10 µL of the reaction is then spotted onto a P30 filtermat and washed three times for 5 minutes in 75 mM phosphoric acid and once in methanol prior to drying and scintillation counting.

T1 sequence (P34947 whole entry): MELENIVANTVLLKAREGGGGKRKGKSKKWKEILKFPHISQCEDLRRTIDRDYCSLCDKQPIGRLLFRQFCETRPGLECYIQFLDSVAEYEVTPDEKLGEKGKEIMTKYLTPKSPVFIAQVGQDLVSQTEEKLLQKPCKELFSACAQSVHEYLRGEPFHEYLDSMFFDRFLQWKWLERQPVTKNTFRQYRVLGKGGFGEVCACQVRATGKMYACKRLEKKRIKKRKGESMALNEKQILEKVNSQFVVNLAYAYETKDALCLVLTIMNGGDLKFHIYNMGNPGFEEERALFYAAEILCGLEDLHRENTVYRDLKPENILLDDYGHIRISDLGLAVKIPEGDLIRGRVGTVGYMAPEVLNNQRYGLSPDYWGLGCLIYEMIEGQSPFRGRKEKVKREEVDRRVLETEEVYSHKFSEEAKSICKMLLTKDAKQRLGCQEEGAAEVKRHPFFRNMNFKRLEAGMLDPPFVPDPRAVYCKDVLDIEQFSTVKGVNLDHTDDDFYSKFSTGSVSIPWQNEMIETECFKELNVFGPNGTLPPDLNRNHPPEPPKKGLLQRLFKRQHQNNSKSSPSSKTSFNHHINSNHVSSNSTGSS

IC50: 5 to 20 µM
Compound: NC(=O)c1ccc(-c2cnc3ccc(Cc4ccc(F)cc4)nn23)cc1 [compound 1, 4-[6-[(4-fluorophenyl)methyl]imidazo[1,2-b]pyridazin-3-yl]benzamide]
